Data set [1] can be described thus: Atropisomer equilibrium and interconversion in solution. The format is physicochemical. The source says: (§1) In solution, the two atropisomers coexist in the ratio of about 1:5 to 1:8 (Isomer A:Isomer B), depending on temperatures and pH.
The subject of data set [2] is Human Liver Hepatocytes. Put plainly: Test D: Metabolic Stability in Cultured Human Liver Hepatocytes. The format is in vitro ADME.
Description: Test D. Metabolic Stability in Cultured Human Liver Hepatocytes
The final hepatocyte concentration was 1 million cells/mL. The hepatocyte/compound reaction mixture was dissolved in InVitroGRO™ KHB buffer (catalog #Z99074, BioreclamationIVT, Inc., Baltimore, MD) at pH 7.4. The incubations were performed in duplicate. A cell free control and a positive control were included in the incubations. The incubations were carried out with gentle shaking in a 37° C. incubator under a humid atmosphere of 95% air/5% CO2 (v/v). Aliquots (100 mL) were removed after 0, 1, 3, and 6 hours and added to 200 mL quenching solution that comprised 0.1% (v/v) TFA in 5% water/95% acetonitrile (v/v). The samples were placed on a shaker for 10 min, followed by centrifugation at 3000 g for 30 min. The samples of the supernatant were analyzed on a Dionex HPLC/PerkinElmer Flow Scintillation Analyzer as described below.
The column was a Phenomenex Synergi fusion RP (150×4.6 mm, 4 mm) maintained at 32 degrees Celsius. Mobile Phase A consisted of 0.1% (v/v) TFA in 99% water/1% acetonitrile (v/v). Mobile Phase B consisted of 0.1% (v/v) TFA in 5% water/95% acetonitrile (v/v). The flow rate was 1 mL/min using a sample injection volume of 100 mL.
Metabolic stability was determined by measuring the change in relative abundance of metabolites and parent over time and calculating from it the rate of disappearance of the parent compound. The stability data was utilized to calculate predicted human hepatic clearance values according to methods known in the art.
The nature of data set [3]: Test C: Pharmacokinetic analysis following intravenous administration to beagle dogs. The format is in vivo.
Excerpt: (§2) Pharmacokinetic Analysis Following Intravenous Administration to Sprague-Dawley Rats and Beagle Dogs and Cynomolgous Monkeys
All IV formulations were in solution.
(§3) Each rat IV dosing group consisted of 3 male SD rats. […] The animals were fasted overnight prior to dose administration and up to 4 hr after dosing. Each dog IV dosing group consisted of 3 male, naïve beagle dogs. At dosing, the animals weighed ˜10-12 kg. The animals were fasted overnight prior to dose administration and up to 2 hr after dosing.
(§4) For the IV infusion group, the test compound was administered by intravenous infusion over 30 minutes. The rate of infusion was adjusted according to the body weight of each animal to deliver a dose of 1 mg/kg at 2 mL/kg.
(§5) Serial venous blood samples (approximately 0.4 mL each for rat and 1.0 mL for dog) were taken at specified time points after dosing from each animal. The blood samples were collected into Vacutainer™ tubes (Becton-Disckinson Corp, New Jersey, USA) containing EDTA as the anti-coagulant and were immediately placed on wet ice pending centrifugation for plasma. Centrifugation began within 1 hour of collection. All samples were placed into 96-well tubes and maintained on dry ice prior to storage at approximately −70° C.
(§6) An LC/MS/MS method was used to measure the concentration of test compounds in plasma.
(§7) Non-compartmental pharmacokinetic analysis was performed on the plasma concentration-time data.
The test system of data set [4] is HIV-IIIb. As to the kind of experiment: Test A: Antiviral Assay in MT4 Cells. The format is cell-based, HIV-1.
Description: 1 mL Aliquots of MT4 cells were pre-infected for 3 hours at 37° C. with 25 μL of cell growth medium (mock-infected) or a fresh 1:250 dilution of an HIV-IIIb concentrated ABI stock (0.004 m.o.i.). Infected and uninfected cells were diluted in cell growth media and 35 μL (2000 cells) was added to each well of the assay plates.
Assay plates were then maintained in a humidified, 5% CO2 incubator at 37° C. After 5 days of incubation, 25 μL of 2× concentrated CellTiter-Glo™ Reagent (catalog #G7573, Promega Biosciences, Inc., Madison, WI) was added to each well of the assay plate. Cell lysis was carried out by incubating at room temperature for 10 minutes and then chemiluminescence was read using an Envision plate reader (PerkinElmer).
The nature of data set [5]: Pharmacokinetic profile after subcutaneous dosing of formulations in dogs (Formulation Examples A-D). The format is in vivo. To be noted: solution in 10% ethanol, 13% water, 6 mg/kg. On the procedure:
The suspension was administered to dogs subcutaneously at a dose of 6 mg/kg and the pharmacokinetic (PK) profile was determined.
The solution was administered to dogs subcutaneously at a dose of 6 mg/kg and the pharmacokinetic (PK) profile was determined.
Subjects were orally dosed with this formulation at 6 mg/kg. […] The solution was administered to dogs subcutaneously at a dose of 6 mg/kg and the pharmacokinetic (PK) profile was determined.

A short description of data set [6]: Test C: Pharmacokinetic analysis following intravenous administration to Sprague-Dawley rats. The format is in vivo.
Excerpt: as §2
All IV formulations were in solution.
as §3, §4, §5, §6, §7
Data set [7] in a line: pKa of Compound 1. The format is physicochemical.
Excerpt: as §1

Take `CC(C)(C#Cc1ccc(-c2ccc(Cl)c3c(NS(C)(=O)=O)nn(CC(F)(F)F)c23)c([C@H](Cc2cc(F)cc(F)c2)NC(=O)Cn2nc(C(F)(F)F)c3c2C(F)(F)[C@@H]2C[C@H]32)n1)S(C)(=O)=O` [Compound 1, N—((S)-1-(3-(4-Chloro-3-(methylsulfonamido)-1-(2,2,2-trifluoroethyl)-1H-indazol-7-yl)-6-(3-methyl-3-(methylsulfonyl)but-1-yn-1-yl)pyridin-2-yl)-2-(3,5-difluorophenyl)ethyl)-2-((3bS,4aR)-5,5-difluoro-3-(trifluoromethyl)-3b,4,4a,5-tetrahydro-1H-cyclopropa[3,4]cyclopenta[1,2-c]pyrazol-1-yl)acetamide]: in data set [1] (in solution at 37° C., read-out: t½ of re-equilibration of separated atropisomers), the half-life was in the range of 1 to 2 h. For the same molecule, the rotational energy barrier entry in data set [1] (rotation along one of the C—C bonds (atropisomers)) is reported as “about 24 kcal/mol”. The “Predicted Human Hepatic Clearance” value in data set [2] (calculated from stability in pooled cryopreserved human hepatocytes, […], up to 6 hours) was 0.01 L/h/kg. The results for the “times more stable in human hepatocytes (lower predicted hepatic clearance)” value in data set [2] (relative to compound A) and in data set [2] (relative to compound B) were “about 9 times” and “about 4 times”, respectively. The “times longer in vivo terminal half-life in dog” value is reported as “about 5 times” in data set [3] (relative to compound A) and “about 4 times” in data set [3] (relative to compound B). Further, the “times lower in vivo clearance in dog” value is recorded as “about 3 times” in data set [3] (relative to compound A) and “about 4 times” in data set [3] (relative to compound B). Moreover, the “times more potent in HIV antiviral assay” value is recorded as “about 9 times” in data set [4] (relative to compound A) and “about 16 times” in data set [4] (relative to compound B). In addition, the “plasma concentration of Compound 1 at day 28” value is given as “measurable” in data set [5] (77% PEG 200 (200 mg/mL) with 1.2 molar equivalent NaOH (in situ sodium salt), FIG. 29) and “measurable” in data set [5] (77% glycofurol (200 mg/mL) with 1.2 molar equivalent NaOH (in situ sodium salt), FIG. 30). The “times longer in vivo terminal half-life in rat” value in data set [6] (relative to compound A) is “about 14 times”; in data set [6] (relative to compound B), “about 9 times”. The figures for the “times lower in vivo clearance in rat” value in data set [6] (relative to compound A) and in data set [6] (relative to compound B) were “about 10 times” and “about 8.6 times”, respectively. Also, the pKa is 6.7 in data set [7] (weak acid, at sulfonamide) and under 1 in data set [7] (weak base, at pyridine).
For the molecule `Cn1nc(NS(C)(=O)=O)c2c(Cl)ccc(-c3ccc(C#CC(C)(C)O)nc3[C@H](Cc3cc(F)cc(F)c3)NC(=O)Cn3nc(C(F)(F)F)c4c3C(F)(F)[C@@H]3C[C@H]43)c21` [Compound B, reference compound], the EC50 in data set [4] (Human immunodeficiency virus 1, IIIB, MT4, 120 h) is 2.99 nM.

One may read the pKa as the pH at which an ionisable group is half protonated. As usually defined, the EC50 is the concentration needed to bring the measured effect to its halfway point. High values mean a less potent agent, low ones a more potent agent.

Source of the values: US12492189B2, “Solid forms of an HIV capsid inhibitor” (Gilead Sciences, Inc., priority 2017, dated 2025).
